From US8198317B2, “Methylenedioxy phenolic compounds and their use to treat disease” (The Ohio State University Research Foundation, priority 2008, dated 2012)

Tests used:
Cardiovascular Patient = assay: Treatment of a cardiovascular patient with chest pain (Examples 8-10); type: in vivo, human; conditions: 1.0 to 100 mg/kg
Description: A person presents with uncomfortable pressure, squeezing and pain in the center of their chest as well as in shoulders, arms, neck, jaw and back. […] After being evaluated with an angiography, they are diagnosed as suffering from atherosclerosis with plaque formation in the coronary arteries. The patient is administered a composition comprising an effective amount of 3,4-methylenedioxy-6-nitrophenyl acetate (INV 75) (1.0 to 100-mg/kg). Alternate therapies include, 3,4-methylenedioxy phenyl acetate (INV 73); 3,4-methylenedioxy-6-nitrophenol (INV 74; 3,4-Methylenedioxy 6-nitro phenyl lipoate (INV-7465) or 3,4-Methylenedioxy phenyl lipoate (INV-7065). The composition is optionally administered in conjunction with therapy such as administration of aspirin, a drug to reduce the tendency of platelet aggregation, such as clopidogrel bisulfate, a statin, an angiotensin converting enzyme inhibitor, and/or heparin or a combination thereof, using dosages known to one of ordinary skill in the art. Patient reports improvement in the chest pain, shortness of breath. They are again evaluated with an angiography to measure reduced plaque in their arteries.
A person presents with uncomfortable pressure, squeezing and pain in the center of their chest for less than 30 minutes. They are taken to the cardiac angiography suite for suspected unstable angina. […] After being evaluated with an angiography, they are diagnosed as suffering from atherosclerosis with plaque formation in the coronary arteries. The patient is administered a composition comprising an effective amount of 3,4-Methylenedioxy phenyl lipoate (INV-7065) (1.0 to 100 mg/kg). […] They are again evaluated with an angiography to measure reduced plaque in their arteries.
A person presents with uncomfortable pressure, squeezing and pain in the center of their chest for less than 30 minutes. […] After being evaluated with an angiography, they are diagnosed as suffering from atherosclerosis with plaque formation in the coronary arteries. […] They are again evaluated with an angiography to measure reduced plaque in their arteries.

p65 subunit of NF-κB = assay: NF-κB translocation assay in HUVECs; type: cell-based, human; conditions: HUVEC
Description: NF-κB Translocation Assays: Cytokines such as TNF-α and interleukin-1 (IL-1) activate a pro-inflammatory response in endothelial cells. An early event in this response is nuclear translocation of the NF-κB transcription factor. This translocation causes the transcription of pro-inflammatory genes such as adhesion molecules VCAM-1, ICAM-1 and E-Selectin to be induced.
NF-κB is a heterodimer, composed of p65 and p50 subunits. Nuclear translocation is monitored by immunolocalization of the p65 subunit of NF-κB in fixed cells and is quantified by measuring the ratio of nuclear to cytoplasmic NF-κB signal. The nuclear translocation of NF-κB in stimulated cells such as primary human umbilical vein endothelial cells (HUVECs) therefore provides a readout that can be used to study the effects of bioactive compounds on the responsiveness of endothelium to pro-inflammatory stimuli. HUVECs were pre-treated with INV-75 at various concentrations (10 nM to 1 μM) or control (without [INV-75) for 24 hours. The media was then changed to one containing 10 ng/ml TNFα, or 1 μg/ml bovine serum albumin (vehicle) for 6 hours. p65 distribution was calculated as intensity in the cytoplasm and nucleus in regions of interest. At least 5 cells per high power field were used and at least 5 high power fields per concentration of the drug were used. The intensities were then expressed as the ratio of nuclear to cytoplasmic staining at least 5 cells per high power field. The data was then expressed as a ratio of the nuclear to cytoplasmic ratio without TNF-α.
In alternate experiments to assess NF-κB Activation extraction reagents were used to extract nuclear and cytoplasmic fraction from HUVEC cells previously treated with INV-75 at various concentrations for 6-24 hours before being stimulated with 2 ng/mL TNF-α for 6 hours. The expression of VCAM-1 and ICAM-1 were evaluated after TNF-α stimulation for 6 hours stimulation by western blot analysis. The p65 level in nuclear and cytoplasmic extracts were then analyzed by western blotting as described above.

[1] = system: New Zealand White rabbits; assay: Plasma lipid profile in NZW rabbits; type: in vivo, rabbit; conditions: end of treatment
Description: Animal Model: 15 male New Zealand White rabbits (Charles River, Mass.) were fed with high fat diet (HFD) (Harlan Teklad rabbit diet with 0.5% cholesterol, TD 87251). After 4 weeks of high fat diet, rabbits were randomized into three different treatment groups, normal control (n=5), lipoic acid (100 mg/kg/day) (n=5), INV 70-65 (100 mg/kg/day) (n=5). These drugs were administered to the animals via their chow by mixing the drugs with the high fat diet. A fixed amount of chow and drugs admixed in the chow were fed to all animals every day after carefully calculating food intake in each rabbit. Drugs were dissolved in 100% ethanol and sprayed onto the diet and kept under vacuum to let ethanol evaporate overnight. Two (2) weeks after drug or control admixed HFD, all rabbits underwent aortic balloon denudation surgeries followed by 12 weeks of continued administration of drug or controls admixed with HFD. FIG. 29 provides an outline of the experimental design.
A lipid profile (Cholesterol, Triglycerides, direct HDL, LDL and VLDL) was performed after a total of 12 weeks of treatment with the drugs. One (1) ml of blood from the ear lobe vein was placed into tubes containing K EDTA at the beginning of the high cholesterol diet and again at the time of sacrifice. All values were expressed as mean±SD. The bar graph of each group both at the baseline and the end point measurement is presented. The statistical analysis was done with one way ANOVA.

Row | SMILES | chest pain, shortness of breath (Cardiovascular Patient) | ratio of nuclear to cytoplasmic staining of p65 (p65 subunit of NF-κB; TNF-α, at all the concentrations tested) | HDL levels [1] | LDL level compared to normal control [1] | VLDL levels compared to controls [1] | triglyceride (TG) levels compared to controls [1] | nuclear p65 expression (nuclear to cytoplasmic ratio) (p65 subunit of NF-κB; 24 hours pre-treatment, then TNF-α, n=3) | concentration from which translocation of p65 to the nucleus is inhibited (p65 subunit of NF-κB; TNF-α stimulated) | TC level compared to normal control [1]
1 | O=C(CCCCC1CCSS1)Oc1cc2c(cc1[N+](=O)[O-])OCO2 (stereo not drawn) [INV-7465, 3,4-Methylenedioxy 6-nitro phenyl lipoate] | improvement | decrease | – | – | – | – | – | – | –
2 | O=C(CCCCC1CCSS1)Oc1ccc2c(c1)OCO2 (stereo not drawn) [INV-7065, 3,4-Methylenedioxy phenyl lipoate] | improvement | – | insignificant change | lower | slight decrease | significantly decreased | – | – | –
3 | CC(=O)Oc1cc2c(cc1[N+](=O)[O-])OCO2 [INV-75, 3,4-methylenedioxy-6-nitrophenyl acetate] | improvement | – | – | moderate decreases | – | – | marked inhibition | ≥ 10 nM | moderate decreases
